Numbered stars: 1 amine (or outer) side, 2 acyl side, 3 side chain; on linkers, the order of the positions; unused ones are H or OH. Bridge positions count the residues as written; N and C are the ends. Square brackets hold non-standard residues; d marks the D form. Peptide text beside a SMILES is read from it. * marks the point of attachment. ξ: configuration not given here. X47 = O=C([C@H](Cc1ccc(-c2cccc(OC(F)(F)F)c2)cc1)N[*:1])[*:2]; Phe(4-CONH2) = NC(=O)c1ccc(C[C@H](N)C(=O)O)cc1; Phe(4-COOH) = N[C@@H](Cc1ccc(C(=O)O)cc1)C(=O)O; Trp(6-F) = N[C@@H](Cc1c[nH]c2cc(F)ccc12)C(=O)O; Phe(4-CH2NH2) = NCc1ccc(C[C@H](N)C(=O)O)cc1; Bip = N[C@@H](Cc1ccc(-c2ccccc2)cc1)C(=O)O; Phe(3-Br) = N[C@@H](Cc1cccc(Br)c1)C(=O)O; Phe(3-Me) = Cc1cccc(C[C@H](N)C(=O)O)c1; Phe(2-Me) = Cc1ccccc1C[C@H](N)C(=O)O; 4Pal = N[C@@H](Cc1ccncc1)C(=O)O; Cha = N[C@@H](CC1CCCCC1)C(=O)O; Cit = NC(=O)NCCC[C@H](N)C(=O)O; Ile(3ξ) = CCC(C)[C@H](N)C(=O)O; Carboxymethyl = O=C(O)C*; NMeA = CN[C@@H](C)C(=O)O; Orn = NCCC[C@H](N)C(=O)O; Dab = NCC[C@H](N)C(=O)O; Dap = NC[C@H](N)C(=O)O

T1 sequence (Q15116 25-288): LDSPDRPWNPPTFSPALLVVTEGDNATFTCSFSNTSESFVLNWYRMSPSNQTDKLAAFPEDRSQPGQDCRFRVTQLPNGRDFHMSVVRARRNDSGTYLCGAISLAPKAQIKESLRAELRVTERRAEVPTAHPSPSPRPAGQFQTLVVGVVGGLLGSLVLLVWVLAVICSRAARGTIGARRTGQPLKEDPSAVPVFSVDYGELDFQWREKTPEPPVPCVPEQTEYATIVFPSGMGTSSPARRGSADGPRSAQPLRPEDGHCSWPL

The experiment addresses T1, PE-labeled human PD-L1-Ig binding to Jurkat cell line over-expressing human PD-1 (Jurkat-PD-1) (Homo sapiens, UniProt Q15116).
T1 construct: expressed in transfected cells; host or cells: Jurkat
Kind of experiment: Jurkat-PD-1 Cell Binding High-Content Screening Assay (CBA): Method 1. Particulars: Jurkat-hPD-1 cells, PE-labeled PD-L1-Ig 20 nM final; read-out: Jurkat HPDL1 PD1 IC50 (uM) (Method 1).
Turning to `CC(C)C[C@@H]1NC(=O)[C@H](CCN)NC(=O)[C@@H](CC(C)C)NC(=O)[C@H](C)N(C)C(=O)[C@H](CCCNC(=N)N)NC(=O)[C@H](Cc2ccc(-c3ccccc3)cc2)NC(=O)[C@H](C(C)C)NC(=O)[C@H](Cc2cccc(Br)c2)NC(=O)[C@H](CC(=O)O)NC(=O)[C@H](Cc2ccc(O)cc2)NC(=O)[C@H](CC(N)=O)NC(=O)CSC[C@@H](C(=O)N[C@@H](C)C(N)=O)NC(=O)[C@H]([C@@H](C)O)NC(=O)[C@H](C(C)C)NC1=O` [Compound 1217] ({CH2CO}-NYD[Phe(3-Br)]V[Bip]R[NMeA][dL][Dab]LVTCA-NH2; thioether N-14), the IC50 (in general, the point on the concentration scale where inhibition reaches its midpoint) was found to be 0.06 µM. Regarding `Cc1cccc(C[C@@H]2NC(=O)[C@H](CC(=O)O)NC(=O)[C@H](Cc3ccc(OCC(=O)O)cc3)NC(=O)[C@H](CN)NC(=O)CSC[C@@H](C(=O)N[C@@H](CCN)C(N)=O)NC(=O)[C@H](CCCN)NC(=O)[C@H](C(C)C)NC(=O)[C@H](CC(C)C)NC(=O)[C@H](CCN)NC(=O)[C@@H](C)NC(=O)[C@H](C)N(C)C(=O)[C@H](Cc3ccc(O)cc3)NC(=O)[C@H](Cc3ccc(-c4ccccc4)cc3)NC(=O)[C@H](Cc3ccc(O)cc3)NC2=O)c1` [Compound 1874] ({CH2CO}-[Dap]Y(Carboxymethyl)D[Phe(3-Me)]Y[Bip]Y[NMeA][dA][Dab]LV[Orn]C[Dab]-NH2; thioether N-14), the IC50 was determined as 0.28 µM. `Cc1ccccc1C[C@@H]1NC(=O)[C@H](CC(=O)O)NC(=O)[C@H](Cc2ccc(O)cc2)NC(=O)[C@H](CC(N)=O)NC(=O)CSC[C@@H](C(=O)N[C@@H](C)C(N)=O)NC(=O)[C@H]([C@@H](C)O)NC(=O)[C@H](C(C)C)NC(=O)[C@H](CC(C)C)NC(=O)[C@H](CCCNC(=N)N)NC(=O)[C@@H](CC(C)C)NC(=O)[C@H](C)N(C)C(=O)[C@H](CCCNC(=N)N)NC(=O)[C@H](Cc2ccc(-c3ccccc3)cc2)NC(=O)[C@H](C(C)C)NC1=O` [Compound 1197] ({CH2CO}-NYD[Phe(2-Me)]V[Bip]R[NMeA][dL]RLVTCA-NH2; thioether N-14): the IC50 worked out at 0.36 µM. For `CC(C)C[C@@H]1NC(=O)[C@H](CCCNC(=N)N)NC(=O)[C@@H](CC(C)C)NC(=O)[C@H](C)N(C)C(=O)[C@H](CCCNC(=N)N)NC(=O)[C@H](Cc2ccc(-c3ccccc3)cc2)NC(=O)[C@H](C(C)C)NC(=O)[C@H](Cc2c[nH]c3ccccc23)NC(=O)[C@H](CC(=O)O)NC(=O)[C@H](Cc2ccc(O)cc2)NC(=O)[C@H](CCC(N)=O)NC(=O)CSC[C@@H](C(=O)N[C@@H](C)C(N)=O)NC(=O)[C@H](CO)NC(=O)[C@H](C(C)C)NC1=O` [Compound 1029] ({CH2CO}-QYDWV[Bip]R[NMeA][dL]RLVSCA-NH2; thioether N-14), the IC50 was found to be 0.04 µM. To `CC(C)C[C@@H]1NC(=O)[C@H](CCCNC(=N)N)NC(=O)[C@@H](CC(C)C)NC(=O)[C@H](C)N(C)C(=O)[C@H](CCCNC(=N)N)NC(=O)[C@H](Cc2ccc(-c3ccccc3)cc2)NC(=O)[C@H](C(C)C)NC(=O)[C@H](Cc2c[nH]c3ccccc23)NC(=O)[C@H](CC(=O)O)NC(=O)[C@H](Cc2ccc(C(N)=O)cc2)NC(=O)[C@H](Cc2ccccc2)NC(=O)CSC[C@@H](C(=O)N[C@@H](C)C(N)=O)NC(=O)[C@H]([C@@H](C)O)NC(=O)[C@H](C(C)C)NC1=O` [Compound 1099] ({CH2CO}-F[Phe(4-CONH2)]DWV[Bip]R[NMeA][dL]RLVTCA-NH2; thioether N-14) belongs 0.03 µM; to `CCC(C)[C@@H]1NC(=O)[C@H](Cc2ccc(-c3ccccc3)cc2)NC(=O)[C@H](CC(C)C)NC(=O)[C@H](Cc2c[nH]c3ccccc23)NC(=O)[C@H](CC(=O)O)NC(=O)[C@H](Cc2ccc(C(=O)O)cc2)NC(=O)[C@H](Cc2ccc(OCC(=O)O)cc2)NC(=O)CSC[C@@H](C(=O)N[C@@H](CCN)C(N)=O)NC(=O)[C@H](CO)NC(=O)[C@H](C(C)C)NC(=O)[C@H](CC2CCCCC2)NC(=O)[C@H](CCN)NC(=O)[C@@H](CC(C)C)NC(=O)[C@H](C)N(C)C1=O` (stereo partly drawn) [Compound 1910] ({CH2CO}-Y(Carboxymethyl)[Phe(4-COOH)]DWL[Bip][Ile(3ξ)][NMeA][dL][Dab][Cha]VSC[Dab]-NH2; thioether N-14), 0.02 µM; to `CC(C)C[C@@H]1NC(=O)[C@H](CCCNC(=N)N)NC(=O)[C@@H](CC(N)=O)NC(=O)[C@H](C)N(C)C(=O)[C@H](CCCNC(=N)N)NC(=O)[C@H](Cc2ccc(-c3ccccc3)cc2)NC(=O)[C@H](C(C)C)NC(=O)[C@H](Cc2c[nH]c3ccccc23)NC(=O)[C@H](CC(=O)O)NC(=O)[C@H](Cc2ccc(O)cc2)NC(=O)[C@H](Cc2ccccc2)NC(=O)CSC[C@@H](C(=O)NCC(N)=O)NC(=O)[C@H](CO)NC(=O)[C@H](C(C)C)NC1=O` [Compound 1019] ({CH2CO}-FYDWV[Bip]R[NMeA][dN]RLVSCG-NH2; thioether N-14), 0.36 µM. In the case of `CC(C)C[C@@H]1NC(=O)[C@H](Cc2c[nH]c3ccccc23)NC(=O)[C@H](CC(=O)O)NC(=O)[C@H](Cc2ccc(O)cc2)NC(=O)[C@H](Cc2ccccc2)NC(=O)CSC[C@@H](C(=O)NCC(N)=O)NC(=O)[C@H](CO)NC(=O)[C@H](C(C)C)NC(=O)[C@H](CC(C)C)NC(=O)[C@H](CC(N)=O)NC(=O)[C@H](CCN)NC(=O)[C@H](C)N(C)C(=O)[C@H](C(C)C)NC(=O)[C@H](Cc2ccc(-c3ccccc3)cc2)NC1=O` [Compound 1795] ({CH2CO}-FYDWL[Bip]V[NMeA][Dab]NLVSCG-NH2; thioether N-14), the IC50 was found to be 0.16 µM.

On to `Cc1cccc(C[C@@H]2NC(=O)[C@H](CC(=O)O)NC(=O)[C@H](Cc3ccc(OCC(=O)O)cc3)NC(=O)[C@H](Cc3ccncc3)NC(=O)CSC[C@@H](C(=O)NCC(N)=O)NC(=O)[C@H](CO)NC(=O)[C@H](C(C)C)NC(=O)[C@H](CC(C)C)NC(=O)[C@H](CC(N)=O)NC(=O)[C@@H](CC(C)C)NC(=O)[C@H](C)N(C)C(=O)[C@H](C(C)C)NC(=O)[C@H](Cc3ccc(-c4ccccc4)cc3)NC(=O)[C@H](CC(C)C)NC2=O)c1` [Compound 1557] ({CH2CO}-[4Pal]Y(Carboxymethyl)D[Phe(3-Me)]L[Bip]V[NMeA][dL]NLVSCG-NH2; thioether N-14), for which the IC50 worked out at 0.01 µM. For `CC(C)C[C@@H]1NC(=O)[C@H](CCCNC(=N)N)NC(=O)[C@@H](CC(C)C)NC(=O)[C@H](C)N(C)C(=O)[C@H](CCCNC(=N)N)NC(=O)[C@H](Cc2ccc(-c3ccccc3)cc2)NC(=O)[C@H](C(C)C)NC(=O)[C@H](Cc2c[nH]c3cc(F)ccc23)NC(=O)[C@H](CC(=O)O)NC(=O)[C@H](Cc2ccc(O)cc2)NC(=O)[C@H](Cc2ccccc2)NC(=O)CSC[C@@H](C(=O)N[C@@H](C)C(N)=O)NC(=O)[C@H]([C@@H](C)O)NC(=O)[C@H](C(C)C)NC1=O` [Compound 1079] ({CH2CO}-FYD[Trp(6-F)]V[Bip]R[NMeA][dL]RLVTCA-NH2; thioether N-14), the IC50 turned out to be 0.25 µM. To `CC(C)C[C@@H]1NC(=O)[C@H](CCN)NC(=O)[C@@H](CC(C)C)NC(=O)[C@H](C)N(C)C(=O)[C@H](CCCNC(N)=O)NC(=O)[C@H](Cc2ccc(-c3ccccc3)cc2)NC(=O)[C@H](C(C)C)NC(=O)[C@H](Cc2c[nH]c3ccccc23)NC(=O)[C@H](CC(=O)O)NC(=O)[C@H](Cc2ccc(O)cc2)NC(=O)[C@H](CCCNC(=N)N)NC(=O)CSC[C@@H](C(=O)N[C@@H](C)C(N)=O)NC(=O)[C@H]([C@@H](C)O)NC(=O)[C@H](C(C)C)NC1=O` [Compound 1351] ({CH2CO}-RYDWV[Bip][Cit][NMeA][dL][Dab]LVTCA-NH2; thioether N-14) belongs 0.05 µM; to `CC(C)C[C@@H]1NC(=O)[C@H](CCN)NC(=O)[C@@H](CC(C)C)NC(=O)[C@H](C)N(C)C(=O)[C@H](CCCNC(=N)N)NC(=O)[C@H](Cc2ccc(-c3cccc(OC(F)(F)F)c3)cc2)NC(=O)[C@H](C(C)C)NC(=O)[C@H](Cc2c[nH]c3ccccc23)NC(=O)[C@H](CC(=O)O)NC(=O)[C@H](Cc2ccc(O)cc2)NC(=O)[C@H](CC(N)=O)NC(=O)CSC[C@@H](C(=O)N[C@@H](C)C(N)=O)NC(=O)[C@H]([C@@H](C)O)NC(=O)[C@H](C(C)C)NC1=O` [Compound 1228] ({CH2CO}-NYDWV[X47]R[NMeA][dL][Dab]LVTCA-NH2; thioether N-14), 0.9 µM. `CC(C)C[C@@H]1NC(=O)[C@H](Cc2c[nH]c3ccccc23)NC(=O)[C@H](CC(=O)O)NC(=O)[C@H](Cc2ccc(OCC(=O)O)cc2)NC(=O)[C@H](Cc2ccccc2)NC(=O)CSC[C@@H](C(=O)N[C@@H](C)C(N)=O)NC(=O)[C@H](CO)NC(=O)[C@H](C(C)C)NC(=O)[C@H](CC(C)C)NC(=O)[C@H](CC(N)=O)NC(=O)[C@@H](CC(C)C)NC(=O)[C@H](C)N(C)C(=O)[C@H](CC(=O)O)NC(=O)[C@H](Cc2ccc(-c3ccccc3)cc2)NC1=O` [Compound 2029] ({CH2CO}-FY(Carboxymethyl)DWL[Bip]D[NMeA][dL]NLVSCA-NH2; thioether N-14): the IC50 turned out to be 0.04 µM.

For `CC(C)C[C@@H]1NC(=O)[C@H](Cc2c[nH]c3ccccc23)NC(=O)[C@H](CC(N)=O)NC(=O)[C@H](Cc2ccc(O)cc2)NC(=O)[C@H](Cc2ccccc2)NC(=O)CSC[C@@H](C(=O)N[C@@H](C)C(N)=O)NC(=O)[C@H](CO)NC(=O)[C@H](C(C)C)NC(=O)[C@H](CC(C)C)NC(=O)[C@H](CC(N)=O)NC(=O)[C@@H](C)NC(=O)[C@H](C)N(C)C(=O)[C@H](C(C)C)NC(=O)[C@H](Cc2ccc(-c3ccccc3)cc2)NC1=O` [Compound 1791] ({CH2CO}-FYNWL[Bip]V[NMeA][dA]NLVSCA-NH2; thioether N-14), the IC50 came out at 0.13 µM.

In the case of `CC(C)C[C@@H]1NC(=O)[C@H](CCCNC(=N)N)NC(=O)[C@@H](CC(C)C)NC(=O)[C@H](C)N(C)C(=O)[C@H](CCCNC(=N)N)NC(=O)[C@H](Cc2ccc(-c3ccccc3)cc2)NC(=O)[C@H](C(C)C)NC(=O)[C@H](Cc2c[nH]c3ccccc23)NC(=O)[C@H](CC(=O)O)NC(=O)[C@H](Cc2ccc(CN)cc2)NC(=O)[C@H](Cc2ccccc2)NC(=O)CSC[C@@H](C(=O)N[C@@H](C)C(N)=O)NC(=O)[C@H]([C@@H](C)O)NC(=O)[C@H](C(C)C)NC1=O` [Compound 1083] ({CH2CO}-F[Phe(4-CH2NH2)]DWV[Bip]R[NMeA][dL]RLVTCA-NH2; thioether N-14), the IC50 came to 0.25 µM.

For the origin of these results see US20240409585A1, “MACROCYCLIC IMMUNOMODULATORS” (priority 2021, published 2024).
